Data taken from US11752162B2, “Compounds and compositions for treating solid tumors by intratumoral administration” (Novartis AG, priority 2017, dated 2023).

Assays:
[1] = Binding efficiency of Compound 15 to aluminum-containing particles (Alhydrogel) in Tris buffer; format: physicochemical
[2] = in vivo; conditions: female, C57/BL6, mouse, iv, 2 mg/kg
[3] = tested on: MC38 tumors; assay: Contralateral MC38 colon cancer model, alone or with checkpoint inhibitors; format: in vivo, mouse; conditions: Compound 15 alone, without aluminum hydroxide, 50 μg i.t.
Protocol: MC38 cells were grown in sterile conditions in a 37° C. incubator with 5% CO2 for two weeks. The cells were cultured in Dulbecco's Modified Eagle's medium (DMEM) media supplemented with 10% FBS, cells were passed every 2-3 days. On the day of injection, cells were harvested (Passage 12) and re-suspended in Hanks' Balanced Salt Solution (HBSS) at a concentration of 2.5×10^6/ml. Cells were Radil tested for mycoplasma and murine viruses.
For each mouse, 0.25×10^6 cells were implanted with subcutaneously injection into right flank using a 28½ g needle ([…]). After the first implantation on day 3 (0.25×10^6) cells are implanted with a subcutaneous injection into left flank using a 28½ g needle (100 μL injection volume). Tumor sizes were assessed three times a week once tumors were palpable. Tumor sizes were determined by using caliper measurements, with tumor volumes calculated using the formula: (Length×Width×Width)/2.
Female C57BL/6 mice bearing the MC38 tumors were randomized into 7 groups (n=9 mice per group) 9 days post tumor cell implantation with an average tumor volume range of 69.09-142.25 mm^3, and the separate groups of tumor bearing mice received treatment as shown in Table 17.
The anti-tumor efficacy of Compound 15 adsorbed to aluminum hydroxide (Alhydrogel®) alone or in combination with checkpoint inhibitors, was determined using a contralateral MC38 colon cancer model. The tumor volume was obtained after two weekly intratumoral injections of Compound 15 adsorbed to aluminum hydroxide (50 μg each) either alone (Group 2), in a double combination with intraperitoneal injection (twice weekly) of an anti-PD-L1 antibody (10 mg/kg) (Group 5), in a double combination with intraperitoneal injection (twice weekly) of an anti-CTLA4 antibody (10 mg/kg) (Group 6), or in a triple combination with intraperitoneal injection (twice weekly) of an anti-PD-L1 antibody (10 mg/kg) and with intraperitoneal injection of an anti-CTLA4 antibody (10 mg/kg) (group 7). For comparison, data was obtained after an intraperitoneal injection (twice weekly) of the anti-PD-L1 antibody (10 mg/kg) alone (Group 3) and after an intraperitoneal injection (twice weekly) of the anti-CTLA4 antibody (10 mg/kg) alone (Group 4). The untreated control data was also obtained (Group 1).
The anti-tumor efficacy of Compound 15 alone (without aluminum hydroxide (Alhydrogel®)) or in combination with checkpoint inhibitors was determined using a contralateral MC38 colon cancer model. […] In addition, the anti-tumor efficacy of Compound 15 adsorbed to aluminum hydroxide (Alhydrogel®) alone or in a triple combination with checkpoint inhibitors was determined using a contralateral MC38 colon cancer model. […]

[4] = in vivo; conditions: male, Wistar, rat, iv, 1 mg/kg
Protocol: Note: The pharmacokinetic properties of Compound 15 in 50 mM Tris/0.9% NaCl (pH 7.4) were examined in male Wistar rats following a single 1 mg/kg intravenous bolus administration.

[5] = Compound 15 0.25 mg/mL, aluminum 0.625 mg/mL, ratio 2.5:1
[6] = Compound 15 0.25 mg/mL, aluminum 5 mg/mL, ratio 20:1
[7] = Compound 15 1 mg/mL, aluminum 2.5 mg/mL, ratio 2.5:1
[8] = Compound 15 2 mg/mL, aluminum 0.1 mg/mL, ratio 0.05:1, 20 mM Tris pH 7.4
[9] = Compound 15 2 mg/mL, aluminum 2 mg/mL, ratio 1:1, 20 mM Tris pH 7.4
[10] = Compound 15 2 mg/mL, aluminum 3 mg/mL, ratio 1.5:1, 20 mM Tris pH 7.4
[11] = Compound 15 3 mg/mL, aluminum 5 mg/mL, ratio 1.7:1
[12] = Compound 15 3 mg/mL, aluminum 7.5 mg/mL, ratio 2.5:1

Compound 15 % Bound [1, 5]: 90.7%
Compound 15 % Free [1, 5]: 9.3%
Compound 15 % Bound [1, 6]: 97.6%
Compound 15 % Free [1, 6]: 1.4%
Compound 15 % Bound [1, 7]: 93.5%
Compound 15 % Free [1, 7]: 6.5%
Compound 15 % Bound [1, 8]: 9.6%
Compound 15 % Free [1, 8]: 90.4%
Compound 15 % Free ([1]; Compound 15 2 mg/mL, aluminum 0.5 mg/mL, ratio 0.25:1, 20 mM Tris pH 7.4): 74.3%
Compound 15 % Bound ([1]; Compound 15 2 mg/mL, aluminum 1 mg/mL, ratio 0.5:1, 20 mM Tris pH 7.4): 43.5%
Compound 15 % Bound [1, 9]: 80.8%
Compound 15 % Free [1, 9]: 19.2%
Compound 15 % Bound [1, 10]: 97.6%
Compound 15 % Free [1, 10]: 2.4%
Compound 15 % Bound [1, 11]: 99.6%
Compound 15 % Free [1, 11]: 0.4%
Compound 15 % Bound [1, 12]: 97.1%
Compound 15 % Free [1, 12]: 2.9%
Compound 15 % Bound ([1]; aluminum hydroxide:Compound 15 ratio (w/w) 1.5:1, Tris buffer pH 7): 98.5%
Compound 15 % Bound ([1]; aluminum hydroxide:Compound 15 ratio (w/w) 1.5:1, Tris buffer pH 7.5): 85.9%
Compound 15 % Bound ([1]; aluminum hydroxide:Compound 15 ratio (w/w) 2:1, Tris buffer pH 7): 99.3%
Compound 15 % Bound ([1]; aluminum hydroxide:Compound 15 ratio (w/w) 2:1, Tris buffer pH 8): 99.1%
% Free Compound 15 ([1]; dosing formulation of Example 9, 100 mM Tris pH 7.4): 100%
% Free Compound 15 ([1]; dosing formulation of Example 10, 100 mM Tris pH 7.4): 100%
MRT [2]: 10.2 min
clearance [2]: 18.1 mL/min/kg
half-life [2]: 60 min
MRT [4]: 12 min
half-life [4]: 72 min
clearance ([4]; pH 7.4): 9.2 mL/min/kg
Compound: Cc1cc(OCCOCCC(F)(F)P(=O)(O)O)ccc1CCc1cnc2c(N)nc3cc(CCC(=O)O)ccc3c2c1 [Compound 15, 3-(5-amino-2-(4-(2-(3,3-difluoro-3-phosphonopropoxy)ethoxy)-2-methylphenethyl)benzo[f][1,7]naphthyridin-8-yl)propanoic acid]
difference from the no treatment group, contralateral tumor site [3]: did not show a difference from the no treatment group
difference from the no treatment group, primary injection site [3]: did not show a difference from the no treatment group
